{"source": "BindingDB's records for doi:10.1016/0006-8993(88)90805-0", "about": "(Veterans Administration Medical Center, 1988)", "molecular_target": "Sodium-dependent serotonin transporter (Rattus norvegicus, UniProt P31652)", "sequence (P31652 whole entry)": "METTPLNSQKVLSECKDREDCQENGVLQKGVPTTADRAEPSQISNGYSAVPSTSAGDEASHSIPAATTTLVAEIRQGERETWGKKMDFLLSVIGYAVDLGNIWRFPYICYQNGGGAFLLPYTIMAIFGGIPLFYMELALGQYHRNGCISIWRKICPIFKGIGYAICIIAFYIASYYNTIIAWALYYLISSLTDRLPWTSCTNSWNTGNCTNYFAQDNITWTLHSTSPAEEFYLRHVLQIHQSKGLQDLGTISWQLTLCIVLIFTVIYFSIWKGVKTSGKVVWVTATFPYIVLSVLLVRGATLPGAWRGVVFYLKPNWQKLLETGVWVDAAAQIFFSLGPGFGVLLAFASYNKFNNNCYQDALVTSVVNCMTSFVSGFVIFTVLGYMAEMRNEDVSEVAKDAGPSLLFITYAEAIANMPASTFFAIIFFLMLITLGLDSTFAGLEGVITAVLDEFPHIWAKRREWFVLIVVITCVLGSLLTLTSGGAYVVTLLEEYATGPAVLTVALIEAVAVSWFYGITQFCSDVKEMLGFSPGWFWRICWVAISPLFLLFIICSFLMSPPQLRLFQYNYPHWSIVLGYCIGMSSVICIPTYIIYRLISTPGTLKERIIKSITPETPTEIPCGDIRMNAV", "data": [{"smiles": "CC[C@@H](CO)NC(=O)[C@@H]1C=C2c3cccc4c3c(cn4C)C[C@H]2N(C)C1", "values": [{"measurement": "Ki", "result": 3.7, "unit": "µM"}]}]}
